Assay type in all cases: functional, cell membranes, Membrane vesicle
Data set [1] addresses T1, Mrp3 (ATP-binding cassette sub-family C member 3, ABCC3) (Rattus norvegicus, UniProt O88563). Nature of the data set: TP_TRANSPORTER: inhibition of F-MTX uptake (F-MTX: 5.0 uM, E217betaG: 75.0 uM) in membrane vesicles from Mrp3-Sf9 cells. The arrangement: scale not given: the % may be the effect or the level left. Particulars: membrane vesicles from Mrp3-expressing Sf9 cells, probe F-MTX; read-out: Activity.

Data set [2] has as its target ATP-binding cassette sub-family C member 3 (Rattus norvegicus, UniProt O88563). Briefly: TP_TRANSPORTER: inhibition of F-MTX uptake (F-MTX: 5.0 uM, E217betaG: 75.0 uM) in membrane vesicles from IEC-6 cells. The arrangement: scale not given: the % may be the effect or the level left. Particulars: iec-6, 75 µM.
The target of data set [3] is T1, Mrp3 (ATP-binding cassette sub-family C member 3, ABCC3). Nature of the data set: TP_TRANSPORTER: inhibition of F-MTX uptake (F-MTX: 5.0 uM, MK-571: 100.0 uM) in membrane vesicles from Mrp3-Sf9 cells. The arrangement: scale not given: the % may be the effect or the level left. Particulars: membrane vesicles from Mrp3-expressing Sf9 cells, probe F-MTX; read-out: Activity.

For data set [4] the target is unchanged. Briefly: TP_TRANSPORTER: inhibition of F-MTX uptake (F-MTX: 5.0 uM, MK-571: 100.0 uM) in membrane vesicles from IEC-6 cells. The arrangement: scale not given: the % may be the effect or the level left. Particulars: probe F-MTX, read-out: Activity.
Substrate in data set [5]: CN(Cc1cnc2nc(N)nc(N)c2n1)c1ccc(C(=O)N[C@@H](CCC(=O)O)C(=O)O)cc1
Nature of the data set: TP_TRANSPORTER: uptake in membrane vesicles from Mrp3-Sf9 cells.

Substrate in data set [6]: CN(Cc1cnc2nc(N)nc(N)c2n1)c1ccc(C(=O)N[C@@H](CCC(=O)O)C(=O)O)cc1
Briefly: TP_TRANSPORTER: uptake in membrane vesicles from IEC-6 cells.

With `C[C@]12CC[C@@H]3c4ccc(O)cc4CC[C@H]3[C@@H]1CC[C@@H]2O[C@@H]1O[C@H](C(=O)O)[C@@H](O)[C@H](O)[C@H]1O` [ESTRADIOL 17B GLUCURONIDE], the activity at 75 µM in data set [1] stood at 19.2%. In data set [2], this molecule displayed an Activity of 41.7%.

For the molecule `CN(C)C(=O)CCSC(SCCC(=O)O)c1cccc(/C=C/c2ccc3ccc(Cl)cc3n2)c1` (stereo unspecified) [MK-571], the activity at 100 µM in data set [3] amounted to 4.9%; in data set [4] it was 9.5%.

B1: ATP-binding cassette sub-family C member 3 (Rattus norvegicus) (protein)
chain: MDRLCGSGELGSKFWDSNLTVYTNTPDLTPCFQNSLLAWVPCIYLWAALPCYLFYLRHHRLGYIVLSCLSRLKTALGVLLWCISWVDLFYSFHGLVHGSSPAPVFFITPLLVGITMLLATLLIQYERLRGVRSSGVLIIFWLLCVICAIIPFRSKILLALAEGKILDPFRFTTFYIYFALVLCAFILSCFQEKPPLFSPENLDTNPCPEASAGFFSRLSFWWFTKLAILGYRRPLEDSDLWSLSEEDCSHKVVQRLLEAWQKQQTQASGPQTAALEPKIAGEDEVLLKARPKTKKPSFLRALVRTFTSSLLMGACFKLIQDLSPSSTHSCSASSSGLFRPHGPYWWGFLLAGLMFVSSTMQTLILHQHYHCIFVMALRIRTAIIGVIYRKALTITNSVKREYTVGEMVNLMSVDAQRFMDVSPFINLLWSAPLQVILAIYFLWQILGPSALAGVAVIVLLIPLNGAVSMKMKTYQVQQMKFKDSRIKLMSEILNGIKVLKLYAWEPTFLEQVEGIRQGELQLLRKGAYLQAISTFIWVCTPFMVTLITLGVYVCVDKNNVLDAEKAFVSLSLFNILKIPLNLLPQLISGMTQTSVSLKRIQDFLNQDELDPQCVERKTISPGRAITIHNGTFSWSKDLPPTLHSINIQIPKGALVAVVGPVGCGKSSLVSALLGEMEKLEGAVSVKGSVAYVPQQAWIQNCTLQENVLFGQPMNPKRYQQALETCALLADLDVLPGGDQTEIGEKGINLSGGQRQRVSLARAVYSDANIFLLDDPLSAVDSHVAKHIFDQVIGPEGVLAGKTRVLVTHGISFLPQTDFIIVLADGQITEMGHYSELLQHDGSFANFLRNYAPDENQEANEGVLQHANEEVLLLEDTLSTHTDLTDTEPAIYEVRKQFMREMSSLSSEGEGQNRPVLKRYTSSLEKEVPATQTKETGALIKEEIAETGNVKLSVYWDYAKSVGLCTTLFICLLYAGQNAVAIGANVWLSAWTNDVEEHGQQNNTSVRLGVYATLGILQGLLVMLSAFTMVVGAIQAARLLHTALLHNQIRAPQSFFDTTPSGRILNRFSKDIYVIHEVLAPTILMLFNSFYTSISTIVVIVASTPLFCVVVLPLAVFYGFVQRFYVATSRQLKRLESVSRSPIFSHFSETVTGTSVIRAYGRVQDFKVLSDAKVDSNQKTTYPYIASNRWLGVHVEFVGNCVVLFSALFAVIGRNSLNPGLVGLSVSYALQVTLSLNWMIRTLSDLESNIIAVERVKEYSKTETEAPWVLESNRAPEGWPRSGVVEFRNYSVRYRPGLELVLKNLTLHVQGGEKVGIVGRTGAGKSSMTLCLFRILEAAEGEIFIDGLNVAHIGLHDLRSQLTIIPQDPILFSGTLRMNLDPFGRYSDEDIWRTLELSHLSAFVSSQPTGLDFQCSEGGDNLSVGQRQLVCLARALLRKSRVLVLDEATAAIDLETDDLIQGTIRTQFEDCTVLTIAHRLNTIMDYNRVLVLDKGVVAEFDSPVNLIAAGGIFYGMAKDAGLA
By Km is commonly meant the concentration of substrate that gives half-maximal velocity. Take B1: the Km in data set [5] was 4.5 µM; in data set [6], 11.7 µM.

(Values after ChEMBL document CHEMBL2073852, “Transport of fluorescein methotrexate by multidrug resistance-associated protein 3 in IEC-6 cells” (Am J Physiol Gastrointest Liver Physiol, 2003).)
